Measured values as given in patent US20050112573A1, “Method of detecting toxic substance” (priority 2001, published 2005).

Tested on: yeast genes (level of expressed mRNA)
Assay: DNA chip analysis of expressed mRNA of yeast genes after 2 h culture with a toxic chemical substance
Assay type: cell-based, Saccharomyces cerevisiae S288C
Description: Yeast (Saccharomyces cerevtisiae S288C (α SUC2mal mel gap2 CUP1)) were cultured at 25° C. on YPD medium (yeast extract 1%, polypepton 2%, glucose 2%). One of toxic chemical substances was added to the cell at logarithmic growth phase, and the cell was further cultured for two hours. Cell was cultured without any chemical substance in the same condition, and was used as control. Concentrations of the chemical substances were defined to inhibit the growth of the yeast but not lead to death.
After the completion of cultivation, the culture was centrifuged to collect the cells. To the cells, sodium acetate buffer (50 mM sodium acetate, 10 mM EDTA, 1% SDS) was added, and the mixture was shaken at 65° C. for five minutes, followed by returning to room temperature, and obtaining the supernatant, which procedure was repeated two times. To the supernatant, ½ amount of a solution of phenol/chloroform was added, and the mixture was centrifuged to give a supernatant, which was added with an equal amount of chloroform, and the mixture was centrifuged to give a supernatant. To the supernatant, an equal amount of isopropanol containing 0.3 M sodium acetate was added, and the mixture was allowed to stand at room temperature for 30 minutes, after which the mixture was centrifuged to give a sediment of the whole RNAs. Seventy % ethanol was added to the sediment, and the mixture was again centrifuged to give a sediment, which was then dried and dissolved in water. mRNA was isolated from the whole RNAs as followings. In view of the fact that a poly A chain is attached to the 3′ terminus of mRNA, a polynucleotide having a poly T structure which was immobilized on the surface of latex beads was used to trap the mRNA, and then the mRNA was washed and eluted with spine column (Oligotex-dT30<Super>mRNA Purification Kit, Takara). Reverse transcription of the mRNA was conducted with a reverse transcriptase (Super Script II Reverse Transcriptase; catalogue No. 18064-014, GibcoBRL) using fluorescence-labeled nucleotides to give cDNAs that were introduced with Cy3-dUTP or Cy5-dUTP during the reverse transcription.
The labeled cDNAs were dissolved in TE buffer (10 mM Tris-HCl/1 mM EDTA, pH8.0), and the solution was dropped on the DNA chip containing the whole genes of yeast (DNA Chip Research Inc. Japan) so that the cDNAs were hybridized on the DNA chip at 65° C. for over 12 hours. The fluoresces intensity of the DNA chip was read with a scanner, and the ratio relative to the fluorescence intensity resulting from the absence of chemical substance was estimated as the following, which is shown in Tables 1 to 9: [formula]
In the Tables, “Intensity” indicated in the rightmost column is a value of the level of expressed mRNA of each gene in control cells as divided by the average level of the expressions of the whole genes.

Compound: CCCCC[C@H](O)CC(=O)CCc1ccc(O)c(OC)c1 [(13), gingerol]
- The level of expressed mRNA in the presence of chemical substance/absence: YDR109C (gene YDR109C): 1.4
- The level of expressed mRNA in the presence of chemical substance/absence: YDR128W (gene YDR128W): 1.1
- The level of expressed mRNA in the presence of chemical substance/absence: YDR133C (gene YDR133C): 0.1
- The level of expressed mRNA in the presence of chemical substance/absence: YDR140W (gene YDR140W): 2.0
- The level of expressed mRNA in the presence of chemical substance/absence: YDR221W (gene YDR221W): 1.0
- The level of expressed mRNA in the presence of chemical substance/absence: YDR250C (gene YDR250C): 1.2
- The level of expressed mRNA in the presence of chemical substance/absence: YDR271C (gene YDR271C): 1.5
- The level of expressed mRNA in the presence of chemical substance/absence: YDR278C (gene YDR278C): 0.7
- The level of expressed mRNA in the presence of chemical substance/absence: YDR281C (gene YDR281C): 0.7
- The level of expressed mRNA in the presence of chemical substance/absence: YDR316W (gene YDR316W): 0.6
- The level of expressed mRNA in the presence of chemical substance/absence: YDR338C (gene YDR338C): 1.3
- The level of expressed mRNA in the presence of chemical substance/absence: YDR366C (gene YDR366C): 0.8
- level of expressed mRNA in the presence of chemical substance/in its absence (gene YDR380W): 0.4
- level of expressed mRNA in the presence of chemical substance/in its absence (gene YDR410C): 1.2
- The level of expressed mRNA in the presence of chemical substance/absence: YDR421W (gene YDR421W): 0.6
- The level of expressed mRNA in the presence of chemical substance/absence: YDR425W (gene YDR425W): 1.4
- The level of expressed mRNA in the presence of chemical substance/absence: YDR485C (gene YDR485C): 1.2
- level of expressed mRNA in the presence of chemical substance/in its absence (gene YDR487C): 1.5
- level of expressed mRNA in the presence of chemical substance/in its absence (gene YDR502C): 1.2
- The level of expressed mRNA in the presence of chemical substance/absence: YDR504C (gene YDR504C): 2.2
- level of expressed mRNA in the presence of chemical substance/in its absence (gene YEL011W): 1.5
- level of expressed mRNA in the presence of chemical substance/in its absence (gene YEL020C): 1.2
- The level of expressed mRNA in the presence of chemical substance/absence: YEL044W (gene YEL044W): 1.3
- level of expressed mRNA in the presence of chemical substance/in its absence (gene YER026C): 1.9
- level of expressed mRNA in the presence of chemical substance/in its absence (gene YER069W): 1.4
- The level of expressed mRNA in the presence of chemical substance/absence: YER092W (gene YER092W): 1.2
- The level of expressed mRNA in the presence of chemical substance/absence: YER182W (gene YER182W): 0.9
- The level of expressed mRNA in the presence of chemical substance/absence: YFL042C (gene YFL042C): 1.7
- level of expressed mRNA in the presence of chemical substance/in its absence (gene YFR015C): 2.5
- The level of expressed mRNA in the presence of chemical substance/absence: YFR026C (gene YFR026C): 1.1
- The level of expressed mRNA in the presence of chemical substance/absence: YFR056C (gene YFR056C): 0.3
- level of expressed mRNA in the presence of chemical substance/in its absence (gene YGL001C): 1.0
- level of expressed mRNA in the presence of chemical substance/in its absence (gene YGL022W): 1.0
- level of expressed mRNA in the presence of chemical substance/in its absence (gene YGL039W): 1.5
- The level of expressed mRNA in the presence of chemical substance/absence: YGL041C (gene YGL041C): 1.0
- The level of expressed mRNA in the presence of chemical substance/absence: YGL045W (gene YGL045W): 1.3
- The level of expressed mRNA in the presence of chemical substance/absence: YGL057C (gene YGL057C): 1.3
- The level of expressed mRNA in the presence of chemical substance/absence: YGL088W (gene YGL088W): 0.7
- level of expressed mRNA in the presence of chemical substance/in its absence (gene YGL104C): 2.0
- level of expressed mRNA in the presence of chemical substance/in its absence (gene YGL134W): 0.7
- level of expressed mRNA in the presence of chemical substance/in its absence (gene YGL154C): 2.0
- The level of expressed mRNA in the presence of chemical substance/absence: YGL183C (gene YGL183C): 1.5
- level of expressed mRNA in the presence of chemical substance/in its absence (gene YGL209W): 1.9
- The level of expressed mRNA in the presence of chemical substance/absence: YGL223C (gene YGL223C): 1.7
- level of expressed mRNA in the presence of chemical substance/in its absence (gene YGL253W): 1.5
- The level of expressed mRNA in the presence of chemical substance/absence: YGR038W (gene YGR038W): 1.2
- level of expressed mRNA in the presence of chemical substance/in its absence (gene YGR060W): 0.6
- The level of expressed mRNA in the presence of chemical substance/absence: YGR139W (gene YGR139W): 0.4
- The level of expressed mRNA in the presence of chemical substance/absence: YGR156W (gene YGR156W): 1.8
- The level of expressed mRNA in the presence of chemical substance/absence: YGR198W (gene YGR198W): 1.3
- The level of expressed mRNA in the presence of chemical substance/absence: YGR210C (gene YGR210C): 1.0
- The level of expressed mRNA in the presence of chemical substance/absence: YGR211W (gene YGR211W): 0.8
- The level of expressed mRNA in the presence of chemical substance/absence: YGR237C (gene YGR237C): 1.6
- The level of expressed mRNA in the presence of chemical substance/absence: YGR243W (gene YGR243W): 1.1
- The level of expressed mRNA in the presence of chemical substance/absence: YGR250C (gene YGR250C): 1.7
- The level of expressed mRNA in the presence of chemical substance/absence: YGR266W (gene YGR266W): 1.1
- The level of expressed mRNA in the presence of chemical substance/absence: YGR277C (gene YGR277C): 1.6
